Assays:
[1] = target: T1, Amyloid-β 1–42 (Aβ1–42) oligomers (Homo sapiens, UniProt P05067); experiment: fluorescence saturation titration; hexamer fragment mapping assay; format: binding
T1 construct: gene APP; full-length Aβ1–42 synthetic peptide, oligomers

[2] = target: T2, Amyloid-β 1–42 (Aβ1–42) fibrils (Homo sapiens, UniProt P05067); experiment: ThT fluorescence turn-on during Aβ[…] self-assembly (reference dye); format: binding
T2 construct: gene APP
T2 sequence (P05067 672-713): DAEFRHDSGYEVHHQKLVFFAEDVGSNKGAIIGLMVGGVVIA

T1 sequence (P05067 672-713): as above

Row | Structure (SMILES) | Kd [1] [nM] | ThT fluorescence turn-on during Aβ1-42 self-assembly (reference dye) [2]
1 | CC(C)CC1=[O+][B-](F)(F)OC(/C=C/c2ccc3nc(N(C)C)ccc3c2)=C1 [Q-OB] | 303 ± 94.7 | –
2 | Cc1ccc2c(c1)sc(-c1ccc(N(C)C)cc1)[n+]2C [ThT, thioflavin T] | – | matured Aβ aggregates formation, since ThT specifically detects cross-β-sheet via hydrophobic binding
